Laboratory results as given in US20240336638A1, “IMIDAZOLE COMPOUND, AND INTERMEDIATE AND APPLICATION THEREOF” (priority 2021, published 2024).
Like-named read-outs stand apart in the source and are kept apart here.

How the values were obtained:
MCAO/R rats = assay: Therapeutic administration (i.v.) in middle cerebral artery occlusion/reperfusion (MCAO/R) rats; assay type: in vivo, rat; details: for Bleeding time / Brain water content (%) / Cerebral infarction rate (%) / Clotting time / Neurological function score: once a day for 3 days, mean ± SD, n = 8; for Neurological function score: modified Bederson score
Experimental: Male SD rats weighing 250 to 300 g were taken, and the rats in each group fasted for 12 hours before modeling, while water was not restricted. According to the method of Longa et al.^[1], a rat model of MCAO/R was established by occluding the blood flow of internal carotid artery using the thread embolization method. The rats were anesthetized with 3% chloral hydrate (300 mg/kg, 1 mL/100 g body weight) through intraperitoneal injection and fixed in the supine position on the operating table. A midline incision was made in the neck, and the right common carotid artery was isolated using forceps and threaded for later use. The external and internal carotid arteries were isolated from the bifurcation of the common carotid artery. A single thread was threaded through the internal carotid artery, and two threads were threaded through the external carotid artery. Both distal and proximal ends were ligated, and the middle part of the ligation site was cut using ophthalmic scissors. The proximal main trunk of the external carotid artery was isolated and reserved for later use. The prepared cotton thread was used to half-ligate the common carotid artery (tying a slipknot), and the thread prepared for the internal carotid artery was tightened with hemostatic forceps, temporarily occluding the blood flow of the internal carotid artery. A small incision at the proximal main trunk of the external carotid artery was made using ophthalmic scissors, and then, the fishing line was held with straight forceps, inserted from this incision, and slowly advanced through the isolated proximal main trunk of the external carotid artery towards the intracranial direction of the internal carotid artery. The advancement was stopped at a predetermined position, and then the thread of the internal carotid artery that was tightened with the hemostatic forceps was loosened. […] Another thread was threaded and tightened around the proximal main trunk of the external carotid artery and the fishing line that had already been inserted into the predetermined position. The half-ligated thread on the common carotid artery was then loosened, and the skin was subsequently sutured. After 2 hours of ischemia, a small section of the fishing line was pulled out. […] After rats in the blank control group were anesthetized, only the bifurcation of the internal and external carotid arteries was exposed without the occlusion of the MCA.
Successfully modeled rats (neurological function score of 3 after reperfusion) were taken and divided into 20 groups (8 rats for each) according to the random number table method. The groups were divided into a model control group, three dose groups (high, 12 mg/kg, 2.4 mg/mL; medium, 6 mg/kg, 1.2 mg/mL; low, 3 mg/kg, 0.6 mg/mL) for each of the six test compounds, and a positive drug Ozagrel group (6 mg/kg, 1.2 mg/mL), respectively. Both blank and model control groups were administered equal volumes of mixed solvents, and the rats in each group were administered by tail vein injection (i.v.) 2 hours after reperfusion, once a day for 3 consecutive days, with a volume of 0.5 mL/100 g body weight.
Ten minutes after the last administration, the neurological function of the animals was graded according to the modified Bederson scoring method. The standard is as follows[2]: • 0 point: no neurological symptoms; • 1 point: when the rat is suspended by lifting its tail, the forelimb on the surgical side of the rat was flexed and pressed against the chest wall; • 2 points: on a smooth plane, when the rat is pushed from the surgical side to the opposite side, the resistance is less than when it is moved to the same side; • 3 points: the animal moves around or in circles when moving freely; • 4 points: flaccid paralysis, no spontaneous movement of limbs.
After Bederson scoring, the rats were executed by cervical dislocation, and the whole brain was removed and weighed. After weighing, the whole brain was placed in a −20° C. refrigerator for 20 minutes. […]

[1] = Blood-brain barrier (BBB) study in SD rats after single IV and PO administration, brain; assay type: in vivo; details: for Cmax / Tmax / half-life / MRT last / MRT inf: Sprague-Dawley (SD); for MRT last: read-out: MRT(0−t); for MRT inf: read-out: MRT(0−∞); for T1/2 and AUC(0-∞) in the brain tissue: compared to Ozagrel
Experimental: Effect Example 3: Pharmacokinetic and blood-brain barrier (BBB) studies of compounds after single intravenous (IV) and oral (PO) administration in SD rats
(§1) The experimental method of administration by gavage injection in rats: SD rats weighing 180 to 220 g were fasted for 12 hours prior to the experiment, with free access to water. After administration, food and water were withheld for 4 hours. After this 4-hour period, the rats were allowed free access to water, and food was provided after 8 hours. The drugs were administered at a set dose. N=3, blood samples were taken before administration, and 5 minutes, 0.25 hours, 0.5 hours, 0.75 hours, 1 hour, 2 hours, 4 hours, 8 hours, and 24 hours after administration, respectively, and placed into sodium heparin anticoagulant tubes. The tubes were centrifuged for 1 hour at 4° C. and at 8000 rpm for 5 minutes, and the plasma was then separated and stored in centrifuge tubes at −70° C. for analysis.
as §1, with “of intravenous” for “of”, “to” for “by gavage injection in”
The plasma concentration-time data were processed using the Phoenix® WinNonlin® 8.0 program to calculate pharmacokinetic parameters.
Among them, Cmax and Tmax are measured values, the elimination rate constant k of the tail section of the C-t curve is obtained from the linear regression of LnC-t, and the value of AUC0-4 is calculated by the trapezoidal area method, and the area under the curve from 0 to ∞ time is AUC=AUC0-4+Ct/k.

[2] = medium dose 6 mg/kg i.v. (Ozagrel group 6 mg/kg)

Row | SMILES | Bleeding time (MCAO/R rats; high dose 12 mg/kg i.v.) | Brain water content (%) (MCAO/R rats; high dose 12 mg/kg i.v.) | Cerebral infarction rate (%) (MCAO/R rats; high dose 12 mg/kg i.v.) | Clotting time (MCAO/R rats; high dose 12 mg/kg i.v.) | Neurological function score (MCAO/R rats; high dose 12 mg/kg i.v.) | Bleeding time (MCAO/R rats; low dose 3 mg/kg i.v.) | Brain water content (%) (MCAO/R rats; low dose 3 mg/kg i.v.) | Cerebral infarction rate (%) (MCAO/R rats; low dose 3 mg/kg i.v.) | Clotting time (MCAO/R rats; low dose 3 mg/kg i.v.) | Neurological function score (MCAO/R rats; low dose 3 mg/kg i.v.) | Bleeding time (MCAO/R rats; [2]) | Brain water content (%) (MCAO/R rats; [2]) | Cerebral infarction rate (%) (MCAO/R rats; [2]) | Clotting time (MCAO/R rats; [2]) | Neurological function score (MCAO/R rats; [2]) | Cmax ([1]; rat brain, IV 1 mg/kg) | Tmax ([1]; rat brain, IV 1 mg/kg) | half-life ([1]; rat brain, IV 1 mg/kg) | MRT last ([1]; rat brain, IV 1 mg/kg) | MRT inf ([1]; rat brain, IV 1 mg/kg) | also measured
1 | O=C(O)[C@@H]1C[C@H]1c1ccc(Cn2cnc(Cl)c2)c(Cl)c1 [Compound 11, (1R,2R)-2-(3-Chloro-4-((4-chloro-1H-imidazol-1-yl)methyl)phenyl)cyclopropane-1-carboxylic acid] | 319.25 ± 49.38 s | 80.58 ± 0.77% | 13.53% | 152.81 ± 29.69 s | 1.25 ± 0.46 | 307.63 ± 64.59 s | 82.04 ± 1.91 % | 28.07 ± 4.88% | 138.38 ± 27.34 s | 2.25 ± 0.46 | 279.75 ± 37.97 s | 80.33 ± 1.65% | 19.96% | 136.63 ± 9.80 s | 2.00 ± 0.53 | 57.5 ng/g | 1 h | 1170 min | 9.49 h | 27.4 h | neurological deficits in rats (MCAO/R rats; high dose): can significantly reduce; improving the neurological function scores of the rats (MCAO/R rats; high dose, comparison among test drugs): more advantageous; reducing the infarct area (smallest mean infarct rate) (MCAO/R rats; high doses, comparison among test drugs): more advantageous; cerebral edema in rats (MCAO/R rats; low dose): did not significantly improve; Cmax ([1]; rat brain, PO 6 mg/kg): 385 ng/g; Tmax ([1]; rat brain, PO 6 mg/kg): 4 h; half-life ([1]; rat brain, PO 6 mg/kg): 1180 min; MRT last ([1]; rat brain, PO 6 mg/kg): 9.94 h; MRT inf ([1]; rat brain, PO 6 mg/kg): 28.5 h; T1/2 and AUC(0-∞) in the brain tissue ([1]; intravenously at 1 mg/kg): significantly increased; T1/2 and AUC(0-∞) in the brain tissue ([1]; orally at 6 mg/kg): significantly increased; AUC(0−t) ([1]; rat brain, IV 1 mg/kg): 855.25 ng·h/g; AUC(0−∞) ([1]; rat brain, IV 1 mg/kg): 1475.23 ng·h/g; AUC(0−t) ([1]; rat brain, PO 6 mg/kg): 7014.55 ng·h/g; AUC(0−∞) (h*ng/g) ([1]; rat brain, PO 6 mg/kg): 12,439.74 h*ng/g
2 | O=C(O)[C@@H]1C[C@H]1c1ccc(Cn2ccnc2)c(F)c1 [Compound 15, (1R,2R)-2-(4-((1H-Imidazol-1-yl)methyl)-3-fluorophenyl)cyclopropane-1-carboxylic acid] | 289.63 ± 60.00 s | 80.84 ± 1.40% | 15.57% | 163.13 ± 20.06 s | 1.50 ± 0.53 | 281.38 ± 61.33 s | 81.71 ± 1.64% | 29.98 ± 5.52% | 155.38 ± 41.85 s | 2.38 ± 0.74 | 304.88 ± 43.01 s | 81.19 ± 1.32% | 21.57% | 156.50 ± 31.15 s | 1.75 ± 0.71 | 41.2 ng/g | 0.08 h | 132 min | 0.82 h | 3.05 h | Cmax ([1]; rat brain, PO 6 mg/kg): 199 ng/g; Tmax ([1]; rat brain, PO 6 mg/kg): 1 h; half-life ([1]; rat brain, PO 6 mg/kg): 102 min; MRT last ([1]; rat brain, PO 6 mg/kg): 2.56 h; MRT inf ([1]; rat brain, PO 6 mg/kg): 2.91 h; T1/2 and AUC(0-∞) in the brain tissue ([1]; intravenously at 1 mg/kg): significantly increased; T1/2 and AUC(0-∞) in the brain tissue ([1]; orally at 6 mg/kg): significantly increased; AUC(0−t) ([1]; rat brain, IV 1 mg/kg): 33.91 ng·h/g; AUC(0−∞) ([1]; rat brain, IV 1 mg/kg): 69.74 ng·h/g; AUC(0−t) ([1]; rat brain, PO 6 mg/kg): 815.87 ng·h/g; AUC(0−∞) ([1]; rat brain, PO 6 mg/kg): 853.63 ng·h/g
